Experimental findings from patent US8461329B2, “Isoquinoline derivative” (Taisho Pharmaceutical Co., Ltd., priority 2008, dated 2013) are described below.

One assay deals with T1, human CRTH2 expression cell KB8 (Homo sapiens, UniProt Q9Y5Y4).
T1 construct: host or cells: KB8 cells (human CRTH2 expression cell)
T1 sequence (Q9Y5Y4 1-395): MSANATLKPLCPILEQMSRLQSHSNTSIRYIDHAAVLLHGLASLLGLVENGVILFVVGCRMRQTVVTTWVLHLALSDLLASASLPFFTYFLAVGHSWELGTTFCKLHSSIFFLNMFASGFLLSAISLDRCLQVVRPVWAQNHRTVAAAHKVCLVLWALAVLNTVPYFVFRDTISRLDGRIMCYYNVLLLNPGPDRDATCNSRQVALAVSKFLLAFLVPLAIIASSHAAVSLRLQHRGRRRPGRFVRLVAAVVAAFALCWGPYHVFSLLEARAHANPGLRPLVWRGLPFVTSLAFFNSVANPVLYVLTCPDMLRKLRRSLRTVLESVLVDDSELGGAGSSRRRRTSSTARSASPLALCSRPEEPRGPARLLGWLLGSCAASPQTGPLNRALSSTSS
The assay can be described thus: CRTH2 binding test (3H-PGD2 binding to KB8 cells). To be noted: 3H-PGD2 5 nM, 4° C., one hour, IC50 class, read-out: binding inhibitory activity. As to the method:
CRTH2 binding inhibitory activity of the compound of the present invention was considered by using a binding test between human CRTH2 expression cell KB8 (BML, INC.) and ^3H-labeled prostaglandin D2 (hereinafter, abbreviated as ^3H-PGD2, manufactured by GE Healthcare).
KB8 was suspended in a reaction buffer solution (Hank's balanced salt solution (Invitrogen) containing 10 mM HEPES (Invitrogen)), which was dispensed in a 96 well plate (Coaster) so that 2×10^5 cells/well are placed. Furthermore, the compound of the present invention and ^3H-PGD2 (final concentration: 5 nM) were added, stirred, and incubated at 4° C.
One hour later, cells were collected on GF/C Filter Plate (PerkinElmer) that had been pre-coated with 0.5% polyethyleneimine solution (SIGMA) by using a Cell Harvester (Packard BioScience), and the radioactivity of the cells was measured by using Top count NXT (PerkinElmer) (a value measured herein was represented by a measurement value “a”). The same procedure was carried out in the absence of the compound, and a measurement value “b” was obtained; and the same procedure was carried out in the absence of the compound and in the presence of non-labeled PGD2 (final concentration: 50 μM), a measurement value “c” was obtained.
The binding inhibition rate of the compound was calculated by the following calculation formula: Bonding inhibitory rate(%)=[1−(a−c)/(b−c)]×100
That is to say, by using binding inhibition rates of compounds to be tested having various concentrations, the IC50 value was calculated according to a dose-dependent inhibition curve analyzed by using XLfit (IDBS) as a data analysis software, and the calculated value was defined as an indicator of the inhibitory activity. In Table 9, A denotes an inhibitory activity showing the IC50 value of less than 50 nM; B denotes an inhibitory activity showing the IC50 value of 50 nM or greater and less than 500 nM; C denotes an inhibitory activity showing the IC50 value of 500 nM or greater and less than 1000 nM; and D denotes an inhibitory activity showing the IC50 value of 1000 nM or greater.
With `O=C(O)Cc1cnc(C(=O)c2ccc(NC(=O)c3ccccn3)cc2)c2ccccc12` [Example 16], the IC50 was under 50 nM.

For another assay, the target named is T2, CRTH2 (KB8 cells) (Homo sapiens, UniProt Q9Y5Y4).
T2 construct: host or cells: KB8 cells (human CRTH2 expression cell)
T2 sequence (Q9Y5Y4 1-395): T1 sequence (Q9Y5Y4 1-395)
The assay can be described thus: CRTH2 antagonist test (PGD2-induced intracellular calcium ion concentration increase in KB8 cells). To be noted: PGD2 100 nM, Fluo-4 calcium fluorescence, read-out: CRTH2 antagonist activity IC50 value. It counts as cell-based. The procedure, abridged: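 Fluo-4-AM-loaded KB8 cells in HBSS with 10 mM HEPES and 1 mM CaCl2 received compound plus PGD2 (final 100 nM); peak fluorescence followed over time. Inhibition was computed against no-compound and unlabelled-PGD2 controls, and IC50 obtained from a dose-response curve.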
(In general: Calcium flux is commonly read through the fluorescence of an indicator in the cells.)
In the case of `O=C(O)Cc1cnc(Cc2ccc(C(=O)NCCc3cc4cc(Cl)ccc4[nH]3)cc2)c2ccccc12` [Example 234], the IC50 is 5.9 nM.
For the compound `O=C(O)Cc1cnc(Cc2ccc(C(=O)NCCC34CC5CC(CC(C5)C3)C4)cc2)c2ccccc12` [Example 240], the IC50 turned out to be 6.6 nM.

Still in this assay, the particulars now being: PGD2 final concentration 100 nM, Fluo-4-AM fluorescence, read-out: antagonist activity (IC50 value, inhibition of calcium ion concentration increase).
As for `O=C(O)Cc1cnc(Cc2ccc(C(=O)NCCc3cc(Cl)cc(Cl)c3)cc2)c2ccccc12` [Example 219], the IC50 fell in the range of 50 to 500 nM.
Consider `CNC(=O)c1ccc(Cc2ncc(CC(=O)O)c3ccccc23)cc1` [Example 220], for which the IC50 is at least 1000 nM.
On the same count and under the same terms, the figure for `O=C(O)Cc1cnc(Cc2ccc(C(=O)NCCc3ccc(Cl)c(F)c3)cc2)c2ccccc12` [Example 221] is under 50 nM; for `O=C(O)Cc1cnc(Cc2ccc(C(=O)NCCc3cc(C(F)(F)F)cc(C(F)(F)F)c3)cc2)c2ccccc12` [Example 222] it is under 50 nM; for `N#Cc1ccc(CCNC(=O)c2ccc(Cc3ncc(CC(=O)O)c4ccccc34)cc2)cc1` [Example 223] it is 50 to 500 nM.
Same read-out and setting: the figure for `O=C(O)Cc1cnc(Cc2ccc(C(=O)NCCc3cc(Cl)ccc3Cl)cc2)c2ccccc12` [Example 224] is 50 to 500 nM; for `CC(C)Oc1ccc(CCNC(=O)c2ccc(Cc3ncc(CC(=O)O)c4ccccc34)cc2)cc1` [Example 225] it is under 50 nM; for `O=C(O)Cc1cnc(Cc2ccc(C(=O)NCCc3cccc(Cl)c3Cl)cc2)c2ccccc12` [Example 226] it is under 50 nM.
`O=C(O)Cc1cnc(Cc2ccc(C(=O)NCCc3cn4ccccc4n3)cc2)c2ccccc12` [Example 227]: the IC50 was at least 1000 nM.
Still for that read-out and setting: the figure for `O=C(O)Cc1cnc(Cc2ccc(C(=O)NCCc3cc(F)ccc3Cl)cc2)c2ccccc12` [Example 228] is under 50 nM; for `O=C(O)Cc1cnc(Cc2ccc(C(=O)NCCc3ccc(F)c(F)c3)cc2)c2ccccc12` [Example 229] it is under 50 nM.
The same measure, in the same setting: the figure for `O=C(O)Cc1cnc(Cc2ccc(C(=O)NCCc3csc4ccccc34)cc2)c2ccccc12` [Example 230] is under 50 nM; for `Cc1cc(C)cc(CCNC(=O)c2ccc(Cc3ncc(CC(=O)O)c4ccccc34)cc2)c1` [Example 231] it is under 50 nM; for `COc1ccc(CCNC(=O)c2ccc(Cc3ncc(CC(=O)O)c4ccccc34)cc2)cc1F` [Example 232] it is under 50 nM.
Regarding `O=C(O)Cc1cnc(Cc2ccc(C(=O)NCCc3ccc(F)cc3Cl)cc2)c2ccccc12` [Example 233], the IC50 is under 50 nM.
The same measure, in the same setting: the figure for `O=C(O)Cc1cnc(Cc2ccc(C(=O)NCCc3cc4cc(Cl)ccc4[nH]3)cc2)c2ccccc12` [Example 234] is under 50 nM; for `O=C(O)Cc1cnc(Cc2ccc(C(=O)NCCc3cc4cc(F)ccc4[nH]3)cc2)c2ccccc12` [Example 235] it is under 50 nM.
On the same count and under the same terms, the same measure for `COc1ccc2[nH]c(CCNC(=O)c3ccc(Cc4ncc(CC(=O)O)c5ccccc45)cc3)cc2c1` [Example 236]: under 50 nM; for `O=C(O)Cc1cnc(Cc2ccc(C(=O)NCCc3ccc(C4CCCCC4)cc3)cc2)c2ccccc12` [Example 237]: under 50 nM.
On the same count and under the same terms, the figure for `CCCCCCc1ccc(CCNC(=O)c2ccc(Cc3ncc(CC(=O)O)c4ccccc34)cc2)cc1` [Example 238] is under 50 nM.
Turning to `O=C(O)Cc1cnc(Cc2ccc(C(=O)NCCC3CC3)cc2)c2ccccc12` [Example 239], the IC50 was 50 to 500 nM.
Take `O=C(O)Cc1cnc(Cc2ccc(C(=O)NCCC34CC5CC(CC(C5)C3)C4)cc2)c2ccccc12` [Example 240]: the IC50 was under 50 nM.
As for `CCCOc1ccc(CCNC(=O)c2ccc(Cc3ncc(CC(=O)O)c4ccccc34)cc2)cc1` [Example 241], the IC50 is under 50 nM.
Regarding `Cc1ccc2sc(CCNC(=O)c3ccc(Cc4ncc(CC(=O)O)c5ccccc45)cc3)cc2c1` [Example 242], the IC50 is under 50 nM.
Same read-out and setting: the figure for `O=C(O)Cc1cnc(Cc2ccc(C(=O)NCCc3ccccc3Oc3ccccc3)cc2)c2ccccc12` [Example 243] is under 50 nM; for `O=C(O)Cc1cnc(Cc2ccc(C(=O)NCCc3cccc(Cl)c3F)cc2)c2ccccc12` [Example 244] it is under 50 nM.
Same read-out and setting: the figure for `Cc1cc(CCNC(=O)c2ccc(Cc3ncc(CC(=O)O)c4ccccc34)cc2)ccc1Cl` [Example 245] is under 50 nM; for `O=C(O)Cc1cnc(Cc2ccc(C(=O)NCC3(c4ccc(Cl)cc4)CC3)cc2)c2ccccc12` [Example 246] it is 50 to 500 nM.
Still for that read-out and setting: the same measure for `O=C(O)Cc1cnc(Cc2ccc(C(=O)NCCNC(=O)c3ccc(Cl)cc3)cc2)c2ccccc12` [Example 247]: 50 to 500 nM; for `O=C(O)Cc1cnc(Cc2ccc(C(=O)NCCc3nc4ccccc4[nH]3)cc2)c2ccccc12` [Example 248]: 50 to 500 nM.
As to `O=C(O)Cc1cnc(Cc2ccc(C(=O)NCCc3cc4ccccc4o3)cc2)c2ccccc12` [Example 249], the IC50 was under 50 nM.
For the compound `O=C(O)Cc1cnc(Cc2ccc(C(=O)NCCc3nc4ccccc4s3)cc2)c2ccccc12` [Example 250], the IC50 was under 50 nM.
Same read-out and setting: the figure for `CC(C)(CNC(=O)c1ccc(Cc2ncc(CC(=O)O)c3ccccc23)cc1)c1ccc(Cl)cc1` [Example 251] is 50 to 500 nM; for `O=C(O)Cc1cnc(Cc2ccccc2OCc2ccc(Cl)cc2)c2ccccc12` [Example 252, (1-{2-[(4-chlorobenzyl)oxy]benzyl}isoquinolin-4-yl)acetic acid] it is at least 1000 nM.
On the same count and under the same terms, the figure for `O=C(O)Cc1cnc(Cc2ccc(C(=O)NCCc3ccc(Cl)cc3)cc2)c2ccc(F)cc12` [Example 253, [1-(4-{[2-(4-chlorophenyl)ethyl]carbamoyl}benzyl)-6-fluoroisoquinoline-4-yl]acetic acid] is under 50 nM.
On the same count and under the same terms, the figure for `CC(C(=O)O)c1cnc(Cc2ccc(C(=O)NCCc3ccc(Cl)cc3)cc2)c2ccccc12` (stereo not shown) [Example 254, 2-[1-(4-{[2-(4-chlorophenyl)ethyl]carbamoyl}benzyl)isoquinolin-4-yl]propanoic acid] is 500 to 1000 nM; for `CC(C)(C(=O)O)c1cnc(C(=O)c2ccc(C(=O)NCCc3ccc(Cl)cc3)cc2)c2ccccc12` [Example 255, 2-{1-[(4-{[2-(4-chlorophenyl)ethyl]carbamoyl}phenyl)carbonyl]isoquinolin-4-yl}-2-methylpropanoic acid] it is at least 1000 nM.
Turning to `NC(=O)Cc1cnc(Cc2ccc(C(=O)NCCc3ccc(Cl)cc3)cc2)c2ccccc12` [Example 256, 4-{[4-(2-amino-2-oxoethyl)isoquinolin-1-yl]methyl}-N-[2-(4-chlorophenyl)ethyl]benzamide], the IC50 is at least 1000 nM.
On the same count and under the same terms, the figure for `O=C(NCCc1ccc(Cl)cc1)c1ccc(Cc2ncc(Cc3nnn[nH]3)c3ccccc23)cc1` [Example 257, N-[2-(4-chlorophenyl)ethyl]-4-{[4-(1H-tetrazol-5-ylmethyl)isoquinolin-1-yl]methyl}benzamide] is at least 1000 nM; for `O=C(Cc1cnc(Cc2ccc(C(=O)NCCc3ccc(Cl)cc3)cc2)c2ccccc12)NO` [Example 258, N-[2-(4-chlorophenyl)ethyl]-4-({4-[2-(hydroxyamino)-2-oxoethyl]isoquinolin-1-yl}methyl)benzamide] it is at least 1000 nM; for `COc1cc2c(CC(=O)O)cnc(C(=O)c3ccc(C(=O)NCCc4ccc(Cl)cc4)cc3)c2cc1OC` [Example 259, {1-[(4-{[2-(4-chlorophenyl)ethyl]carbamoyl}phenyl)carbonyl]-6,7-dimethoxyisoquinolin-4-yl}acetic acid] it is 50 to 500 nM.
Same read-out and setting: the same measure for `COc1ccc2c(C(=O)c3ccc(C(=O)NCCc4ccc(Cl)cc4)cc3)ncc(CC(=O)O)c2c1` [Example 260, {1-[(4-{[2-(4-chlorophenyl)ethyl]carbamoyl}phenyl)carbonyl]-6-methoxyisoquinolin-4-yl}acetic acid]: 50 to 500 nM.
Still for that read-out and setting: the same measure for `O=C(O)Cc1cnc(Oc2ccc(C(=O)NCCc3ccc(Cl)cc3)cc2)c2ccccc12` [Example 261, [1-(4-{[2-(4-chlorophenyl)ethyl]carbamoyl}phenoxy)isoquinolin-4-yl]acetic acid]: at least 1000 nM.
